Data on seven compounds can be found in US10899790B2, “Method for modifying T cell population” (OSAKA UNIVERSITY, priority 2016, dated 2021).

Assay [1] addresses T1, Retinol Dehydrogenase 10 (RDH10) (Homo sapiens, UniProt Q8IZV5).
T1 construct: expressed in transfected cells; host or cells: 293T (microsomal fraction)
T1 sequence (Q8IZV5 1-341): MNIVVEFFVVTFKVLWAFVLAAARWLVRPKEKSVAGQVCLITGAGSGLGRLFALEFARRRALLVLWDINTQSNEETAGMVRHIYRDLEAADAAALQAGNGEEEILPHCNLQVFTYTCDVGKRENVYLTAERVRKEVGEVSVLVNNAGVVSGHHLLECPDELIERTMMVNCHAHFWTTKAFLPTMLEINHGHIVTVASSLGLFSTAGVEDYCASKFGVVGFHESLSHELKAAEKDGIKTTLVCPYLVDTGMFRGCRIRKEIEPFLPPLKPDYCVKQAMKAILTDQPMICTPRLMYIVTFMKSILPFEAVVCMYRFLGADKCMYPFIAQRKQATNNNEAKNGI
Nature of the assay: Inhibition of RDH10 enzyme activity (microsomal fraction of RDH10-expressed 293T, all-trans retinol to all-trans retinal, HPLC). Format: biochemical. As to conditions: final concentration of 20 μM; relative to DMSO control (FIG. 1). How it is done:
All-trans retinol, BSA, and NAD (nicotinamide adenine dinucleotide) as a coenzyme were added to a buffer for reaction (90 mM potassium phosphate buffer, pH7.4, 40 mM KCl) so as to have final concentrations of 10 μM, 10 μM, and 1 mM respectively. This mixture was taken in siliconized tubes by 200 μl for each, the microsomal fractions separated from 293T and RDH10-expressed 293T were added to separate tubes by 10 μl for each, and the mixtures were allowed to react at 37° C. for 15 minutes. After 200 μl of methanol was added to the reaction mixtures to stop the reaction, retinoid was extracted using hexane and concentrated. The concentrated retinoid was dissolved in 150 μl of acetonitrile, separated by HPLC, and subjected to the detection of ultraviolet light absorption at a wavelength of 350 nm, whereby the substrate (all-trans retinol) and the product (all-trans retinal) were detected. In addition, standard samples (all-trans retinol and all-trans retinal) were separated by HPLC and the retention times of the respective standard samples were determined in advance. The solvent for HPLC was acetonitrile: 50 mM ammonium acetate=75:25. As the separation column, Syhergi 4 μm Hydro-RP 80A (manufactured by Phenomenex) was used. In addition, the flow rate was 2.0 ml/min. The RDH10 enzyme activity was calculated by reading the amount of product per fixed time from the chart of HPLC.
All-trans retinol, BSA, and NAD (nicotinamide adenine dinucleotide) as a coenzyme were added to a buffer for reaction (90 mM potassium phosphate buffer, pH7.4, 40 mM KCl) so as to have final concentrations of 10 μM, 10 μM, and 1 mM respectively. This mixture was taken in siliconized tubes by 200 μl for each, the microsomal fraction separated from RDH10-expressed 293T was added to separate tubes by 10 μl for each. The RDH10 inhibitor dissolved in DMSO was added to each tube so as to have a final concentration of 20 μM, and the same amount of DMSO was added to the control tube. The mixture was allowed to react at 37° C. for 15 to 30 minutes, 200 μl of methanol was added to the reaction mixtures, and then retinoid was extracted using hexane and concentrated. The concentrated retinoid was dissolved in 150 μl of acetonitrile, separated by HPLC, and subjected to the detection of ultraviolet light absorption at a wavelength of 350 nm, whereby the substrate (all-trans retinol) and the product (all-trans retinal) were detected. In addition, standard samples (all-trans retinol and all-trans retinal) were separated by HPLC and the retention times of the respective standard samples were determined in advance. The solvent for HPLC was acetonitrile: 50 mM ammonium acetate=75:25. As the separation column, Syhergi 4 μm Hydro-RP 80A (manufactured by Phenomenex) was used. The flow rate was 2.0 ml/min.
The enzyme activity was determined by the waveform area of the product (all-trans retinal) with respective to the waveform area of the non-reacted substrate (all-trans retinol), and the relative value with respect to the enzyme activity in the control is illustrated in FIG. 1. The error bars indicate SD (standard deviation).

Assay [2] relates to Healthy human-derived CD4+CD45RO+T cells. Nature of the assay: Effect in vitro: CD62L and CD127 expression in cultured T cells by flow cytometry. Format: cell-based. The settings on record: 20 μM; anti-CD3, anti-CD28, IL-2; vs DMSO control (FIG. 2). How it is done:
Healthy human-derived CD4^+CD45RO^+T cells (1×10^5) were cultured in the presence of anti-CD3 antibody (2 μg/ml), anti-CD28 antibody (2 μg/ml), IL-2 (20 IU/ml) and RDH10 inhibitors (Compound No. 16 (RDHI-032), Compound No. 17 (RDHI-033), and Compound No. 18 (RDHI-034)) (20 μM for each). In addition, DMSO was used as a control for the RDH10 inhibitor. After seven days […] resuspended in a fresh culture medium to which IL-2 was not added, and cultured for one more day. Thereafter, the expression of CD62L and CD127 in T cells was analyzed by flow cytometry. The culture solution used was X-VIVO15 to which AB serum was added to have a final concentration of 10%.
Background: In flow cytometry, cells or beads pass a laser one at a time.

For `COC(=O)c1ccccc1NC(=O)NC1CC[C@]2(C)[C@H]3C(=O)C=C4[C@H]5C[C@@](C)(C(=O)OC)CC[C@]5(C)CC[C@@]4(C)[C@]3(C)CC[C@H]2C1(C)C` (stereo partly drawn) [Compound No. 9, (2S,4aS,6aS,6bR,8aR,12aS,12bR,14bS)-methyl 10-(3-(2-(methoxycarbonyl)phenyl)ureido)-2,4a,6a,6b,9,9,12a-heptamethyl-13-oxo-1,2,3,4,4a,5,6,6a,6b,7,8,8a,9,10,11,12,12a,12b,13,14b-icosahydropicene-2-carboxylate], the “RDH10 enzyme activity inhibitory action” value in assay [1] is recorded as “relatively potent”.
Consider `COC(=O)[C@@]1(C)CC[C@]2(C)CC[C@]3(C)C(=CC(=O)[C@@H]4[C@@]5(C)CCC(NC(=O)N6CCOCC6)C(C)(C)[C@@H]5CC[C@]43C)[C@@H]2C1` (stereo partly drawn) [Compound No. 23, (2S,4aS,6aS,6bR,8aR,12aS,12bR,14bR)-methyl 2,4a,6a,6b,9,9,12a-heptamethyl-10-(morpholine-4-carboxamido)-13-oxo-1,2,3,4,4a,5,6,6a,6b,7,8,8a,9,10,11,12,12a,12b,13,14b-icosahydropicene-2-carboxylate], for which the “RDH10 enzyme activity inhibitory action” value in assay [1] was “exhibited the RDH10 enzyme activity inhibitory action”. In addition, in assay [2], the “amplification of memory T cells (CD62L+CD127+T cells)” value (from here on “amplification of memory T cells”) is listed as “tended to amplify memory cells”.
Regarding `CC1(C)C(N)CC[C@]2(C)[C@H]3C(=O)C=C4[C@@H]5C[C@@](C)(C(N)=O)CC[C@]5(C)CC[C@@]4(C)[C@]3(C)CC[C@@H]12` (stereo partly drawn) [Compound No. 16, (2S,4aS,6aS,6bR,8aR,12aS,12bR,14bR)-10-amino-2,4a,6a,6b,9,9,12a-heptamethyl-13-oxo-1,2,3,4,4a,5,6,6a,6b,7,8,8a,9,10,11,12,12a,12b,13,14b-icosahydropicene-2-carboxamide], the “RDH10 enzyme activity inhibitory action” value in assay [1] is “relatively potent”. For the same compound, in assay [2], the “amplification of memory T cells” value was “amplified memory T cells” and the “effector T cells (CD62L−CD127−T cells)” value is given as “decreased”.
The matching figures for `CC1(C)C(NC(=O)c2ccccc2)CC[C@]2(C)[C@H]3C(=O)C=C4[C@@H]5C[C@@](C)(C(N)=O)CC[C@]5(C)CC[C@@]4(C)[C@]3(C)CC[C@@H]12` (stereo partly drawn) [Compound No. 18, (2S,4aS,6aS,6bR,8aR,12aS,12bR,14bR)-10-benzamide-2,4a,6a,6b,9,9,12a-heptamethyl-13-oxo-1,2,3,4,4a,5,6,6a,6b,7,8,8a,9,10,11,12,12a,12b,13,14b-icosahydropicene-2-carboxamide]: “relatively potent”, “amplified memory T cells” and “decreased”.
As for `COC(=O)[C@@]1(C)CC[C@]2(C)CC[C@]3(C)C(=CC(=O)[C@@H]4[C@@]5(C)CCC(NC(=O)/C=C\C(=O)O)C(C)(C)[C@@H]5CC[C@]43C)[C@H]2C1` (stereo partly drawn) [Compound No. 5, (Z)-4-((4aR,6aR,6bS,8aS,11S,12aS,14aR,14bS)-11-(methoxycarbonyl)-4,4,6a,6b,8a,11,14b-heptamethyl-14-oxo-1,2,3,4,4a,5,6,6a,6b,7,8,8a,9,10,11,12,12a,14,14a,14b-icosahydropicen-3-ylamino)-4-oxobut-2-enoic acid], the “RDH10 enzyme activity inhibitory action” value in assay [1] is “relatively potent”. The “amplification of memory T cells” value in assay [2] was “tended to amplify memory cells”.
The matching figures for `COC(=O)[C@@]1(C)CC[C@]2(C)CC[C@]3(C)C(=CC(=O)[C@@H]4[C@@]5(C)CCC(NC(=O)N6CCOCC6)C(C)(C)[C@@H]5CC[C@]43C)[C@H]2C1` (stereo partly drawn) [Compound No. 22, (2S,4aS,6aS,6bR,8aR,12aS,12bR,14bS)-methyl 2,4a,6a,6b,9,9,12a-heptamethyl-10-(morpholine-4-carboxamido)-13-oxo-1,2,3,4,4a,5,6,6a,6b,7,8,8a,9,10,11,12,12a,12b,13,14b-icosahydropicene-2-carboxylate]: “exhibited the RDH10 enzyme activity inhibitory action” and “tended to amplify memory cells”.
Turning to `CC(=O)NC1CC[C@]2(C)[C@H]3C(=O)C=C4[C@@H]5C[C@@](C)(C(N)=O)CC[C@]5(C)CC[C@@]4(C)[C@]3(C)CC[C@H]2C1(C)C` (stereo partly drawn) [Compound No. 17, (2S,4aS,6aS,6bR,8aR,12aS,12bR,14bR)-10-acetamido-2,4a,6a,6b,9,9,12a-heptamethyl-13-oxo-1,2,3,4,4a,5,6,6a,6b,7,8,8a,9,10,11,12,12a,12b,13,14b-icosahydropicene-2-carboxamide], in assay [1], the “RDH10 enzyme activity inhibitory action” value is given as “relatively potent”. In assay [2], the “amplification of memory T cells” value is listed as “amplified memory T cells” and the “effector T cells (CD62L−CD127−T cells)” value is “decreased”.
